Measurements as given in ChEMBL document CHEMBL4351028, “Benzoyl indoles with metabolic stability as reversal agents for ABCG2-mediated multidrug resistance” (Eur J Med Chem, 2019).
Calls of active or inactive are those of the source. No cut-off for these calls is given here.

How the values were obtained:
NCI-H460 [1] = assay: Cytotoxicity against human NCI-H460 cells assessed as inhibition of cell viability incubated for 2 hrs by MTT assay; format: cell-based; settings: NCI-H460, 2 h, read-out: IC50
[2] = Cytotoxicity against human NCI-H460/MX20 cells assessed as concentration that causes inhibition of cell viability by <=20% incubated for 24 hrs by MTT assay; format: cell-based
[3] = biological target: T1, Broad substrate specificity ATP-binding cassette transporter ABCG2 (Homo sapiens, UniProt Q9UNQ0); assay: Reversal of ABCG2-mediated multidrug resistance in human NCI-H460/MX20 cells assessed as potentiation of mitoxantrone-induced cytotoxicity by measuring inhibition of cell proliferation at 1 uM pretreated for 2 hrs followed by mitoxantrone addition and measured after 44 hrs by MTT assay (reference value: 24 +/- 3%); format: cell-based
T1 sequence (Q9UNQ0 whole entry): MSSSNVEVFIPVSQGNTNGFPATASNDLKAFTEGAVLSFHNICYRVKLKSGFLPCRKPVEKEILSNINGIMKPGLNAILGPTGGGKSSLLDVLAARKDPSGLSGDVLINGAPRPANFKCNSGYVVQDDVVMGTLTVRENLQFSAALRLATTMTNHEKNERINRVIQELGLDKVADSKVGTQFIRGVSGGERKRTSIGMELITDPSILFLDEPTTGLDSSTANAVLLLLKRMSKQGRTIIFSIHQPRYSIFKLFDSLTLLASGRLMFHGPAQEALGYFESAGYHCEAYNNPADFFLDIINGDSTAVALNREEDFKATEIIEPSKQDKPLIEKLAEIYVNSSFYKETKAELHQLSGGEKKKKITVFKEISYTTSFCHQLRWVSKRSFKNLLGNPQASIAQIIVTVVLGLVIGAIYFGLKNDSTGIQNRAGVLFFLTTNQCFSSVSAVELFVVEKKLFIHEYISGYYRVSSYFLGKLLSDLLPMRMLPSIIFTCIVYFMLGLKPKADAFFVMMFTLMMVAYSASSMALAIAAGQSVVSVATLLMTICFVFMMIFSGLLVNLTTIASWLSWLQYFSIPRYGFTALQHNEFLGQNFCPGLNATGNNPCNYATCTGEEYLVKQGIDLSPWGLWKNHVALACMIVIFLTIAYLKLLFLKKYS

[4] = Cytotoxicity against human NCI-H460/MX20 cells assessed as inhibition of cell viability incubated for 2 hrs by MTT assay; format: cell-based; settings: NCI-H460/MX20, 2 h
NCI-H460 [5] = assay: Cytotoxicity against human NCI-H460 cells assessed as concentration that causes inhibition of cell viability by <=20% incubated for 24 hrs by MTT assay; format: cell-based; settings: nci-h460, 24 h
[6] = Metabolic stability in human liver microsomes assessed as compound remaining at 100 uM incubated for 1 hr by HPLC analysis; format: ADME, Microsome; settings: read-out: Stability
HEK293 [7] = assay: Reversal of ABCG2 482-G2 mutant (unknown origin) expressed in HEK293 cells-mediated multidrug resistance assessed as potentiation of mitoxantrone-induced cytotoxicity at 5 uM pretreated for 2 hrs followed by mitoxantrone addition and measured after 44 hrs by MTT assay; format: cell-based; settings: Homo sapiens
HEK293 [8] = assay: Reversal of ABCG2 482-T7 mutant (unknown origin) expressed in HEK293 cells-mediated multidrug resistance assessed as potentiation of mitoxantrone-induced cytotoxicity at 5 uM pretreated for 2 hrs followed by mitoxantrone addition and measured after 44 hrs by MTT assay; format: cell-based; settings: Homo sapiens

| Compound | IC50 (NCI-H460 [1]) [µM] | Activity [2] [µM] | inhibition (INH) [3] | IC50 [4] [µM] | Activity (NCI-H460 [5]) [µM] | remaining at 1 h, 100 µM [6] [%] | Activity (HEK293 [7]) | Activity (HEK293 [8]) |
| --- | --- | --- | --- | --- | --- | --- | --- | --- |
| COc1ccc2[nH]cc(C(=O)c3c(OC)cccc3OC)c2c1 | > 100 | 1 | Active | > 100 | 1 | – | – | – |
| COc1ccc2[nH]cc(C(=O)c3ccccc3OC)c2c1 | 46.2 | 1 | Active | 61.9 | 1 | – | – | – |
| COc1cc(C(=O)c2c[nH]c3cccc(OC)c23)cc(OC)c1OC | > 100 | 1 | Active | > 100 | 1 | – | – | – |
| COc1ccc2c3c([nH]c2c1)[C@H](CC(C)C)N1C(=O)[C@H](CCC(=O)OC(C)(C)C)NC(=O)[C@@H]1C3 | – | – | – | – | – | 23 | Active | Active |
| COc1ccc2[nH]cc(C(=O)c3cc(OC)c(OC)c(OC)c3)c2c1 | 4.9 | 1 | Active | 5.82 | 1 | – | – | – |
